Test results: US20060130266A1, “Dermal drug delivery system” (priority 2004, published 2006)
Marks after values point to notes of the source that are not given here.

Key:
[1] = In vitro skin permeation, Franz cell pseudo-finite dose study (acyclovir and CF); format: in vitro ADME, human; conditions: for Amount in receptor after 60 min: Zovirax cream spiked with 3H-ACV; for EF: acyclovir, vs untreated skin
Method: Zovirax® spiked with ^3H-ACV was used as the formulation for the entire study. Briefly, 300 μl of ^3H ACV was placed into a 1.5 ml centrifuge tube and evaporated off, over a stream of air. Approximately 1 g of Zovirax® was weighed into the centrifuge tube and carefully mixed with a fine spatula to achieve a homogenous mix. To test for homogeneity, 3 random samples (top, middle and bottom) were taken and determined for radioactivity via scintillation counting.
(§1) Anodal treatment was conducted by placing the anode electrode in the donor compartment and the opposite electrode (cathode) in the receptor compartment of the Franz cell. Cathodal iontophoresis was conducted vice versa. The current treatment protocols employed were either • (a) iontophoresis: dose was administered simultaneously with current or • (b) post-iontophoresis: dose applied immediately after skin exposure to current. • A current intensity of 0.40 mA was employed for a 10 min period during both protocols. Novel Device (Rotatinig Brush) Procedure
Finite dose permeation experiments were performed using similar conditions as described above. The Franz cell studies were carried out without the use of a donor well, in order to allow for the placement of the iontophoretic device over the epidermal membrane. […] The effectiveness of the seal was confirmed if leakage of receptor fluid from the region of contact between skin and adhesive was not observed.
A formulation with a target dose of approximately 9±1 mg/cm^2 (ACV) and 20±2 mg/cm^2 (CF) was applied to the epidermal membrane surface using a previously calibrated positive displacement pipette. Selected control experiments were then performed as described above (anodal and cathodal iontophoresis was performed by simultaneous application of dose and current over a 10 min period for CF and ACV respectively). At certain time intervals 200 μl of the receiver fluid was carefully withdrawn from the receiver fluid (maximum duration of 4 h). Approximately 4 ml of scintillation cocktail was then added and the ACV sample analysed by scintillation counting, whereas the other penetrant was assayed via the HPLC method already described.

[2] = In vitro skin permeation, Franz cell infinite dose study (optimisation studies with MP, BP, CF); conditions: CF; for EF enhancement factor: flux vs untreated skin
[3] = In vitro skin permeation of angiotensin II, Franz cell infinite dose, EIA analysis; format: in vitro ADME, human
Method: Analysis of the peptide was carried out using an enzyme immunoassay (EIA) as described in the EIA booklet. Briefly, a competitive enzyme immunoassay which detects Ang II in biological matrices was employed. The principle of the assay is based upon the competition for antibody binding sites between biotinylated and non-biotinylated peptides. The biotin group on the biotinylated peptide is then conjugated to SA-HRP which in turn reacts with another substrate ([…]) leading to the formation of colour. The absorbance recorded from each well is a direct measure of the extent of binding for each peptide with the antibody. Absorbance was measured using a spectrophotometer. The method was validated by calibrating the response at different concentrations of the peptide (data not shown) and also the ability of the method to assess different concentrations of the penetrant in the presence of any matrices was investigated.
as §1, with “This is a well established physical method of enhancing skin permeation, in vitro, which involves the use of electric current to permeabilise skin and/or promote the migration of drug ions across skin (Cullander, 1992; Guy et al., 2001; Kalia et al., 2004). Anodal” for “Anodal”

[4] = brush B 10 s, 300 Nm^−2, 80 rpm
[5] = brush B 30 s, 300 Nm^−2, 80 rpm
[6] = brush B 60 s, 300 Nm^−2, 80 rpm
[7] = Table 4a, brush A 450 Nm^−2/20 s, 80 rpm
[8] = Table 4a, brush A 450 Nm^−2/45 s, 80 rpm
[9] = Table 4a, brush A 1200 Nm^−2/45 s, 80 rpm
[10] = Table 5a, EtOH/PBS (50% ethanol donor solution)
[11] = Table 5a, brush A 450 Nm^−2, 45 s, 80 rpm
[12] = Table 5a, brush B 300 Nm^−2, 15 s, 80 rpm
[13] = Table 5a, brush B 300 Nm^−2, 25 s, 80 rpm

In the case of `Nc1nc2c(ncn2COCCO)c(=O)[nH]1` [acyclovir, Acyclovir], the “Amount in receptor after 60 min” value [1, 4] was 5.06 ± 1.88 µg/cm^2, the “Amount in receptor after 60 min” value [1, 5] was 12.5 ± 4.02 µg/cm^2 and the “Amount in receptor after 60 min” value [1, 6] was 30.91 ± 5.45 µg/cm^2. The “Amount in receptor after 60 min” value ([1]; cathodal iontophoresis 10 min, 0.40 mA) was 4.95 ± 2.35 µg/cm^2, the “Amount in receptor after 60 min” value ([1]; untreated skin) was 0.14 ± 0.08 µg/cm^2 and the EF [1, 4] was 36. For the same compound, the EF [1, 5] was 89, the EF [1, 6] was 220 and the EF ([1]; cathodal iontophoresis 10 min) was 35. The “Increase in enhancement factor compared to iontophoresis” value ([1]; brush B at maximum treatment time (60 s)) was “ca. 600%”.
With `Cn1c(=O)c2c(ncn2C)n(C)c1=O` [CF, Caffeine] the “Amount of CF in receptor after 30 min compared with other methods of enhancement” value ([1]; pseudo-finite dose, brush B 300 Nm^−2/25 s) was “at least double”, the “Amount of CF deposited in receptor compartment compared with untreated skin” value ([1]; pseudo-finite dose, chemical enhancement method (50% ethanol)) was “not to be significantly different” and the “Time after which presence of CF in receptor was determined” value ([1]; pseudo-finite dose, untreated skin and chemical enhancement, limit of detection 0.05 ug/ml) was 120 min. For the same compound, the “Reduction of lag times relative to original value” ([2]; brush A, altering pressure or duration of treatment) was roughly 75%, the KP permeability coefficient [2, 7] was 5.04 ± 1.30 10^−8 cm/s and the TL lag time [2, 7] was 68.33 ± 17.76 min. For the same compound, the EF enhancement factor [2, 7] was 1.47, the JS flux ([2]; Table 4a, brush A 450 Nm^−2/20 s, 80 rpm, n = 2) was 10.3 ± 2.67^p 10^−4 μg/cm/s and the JS flux [2, 8] was 16.3 ± 0.86* 10^−4 μg/cm/s. The KP permeability coefficient [2, 8] was 7.95 ± 0.42 10^−8 cm/s, the TL lag time [2, 8] was 41.21 ± 8.09 min and the EF enhancement factor [2, 8] was 2.34. The JS flux [2, 9] was 18.4 ± 8.93* 10^−4 μg/cm/s, the KP permeability coefficient [2, 9] was 8.97 ± 4.06 10^−8 cm/s and the TL lag time [2, 9] was 16.74 ± 6.50 min. For the same compound, the EF enhancement factor [2, 9] was 2.64, the JS flux ([2]; Table 4a, delipidised skin) was 52.25 ± 25.17* 10^−4 μg/cm/s and the KP permeability coefficient ([2]; Table 4a, delipidised skin) was 25.66 ± 12.28 10^−8 cm/s. The TL lag time ([2]; Table 4a, delipidised skin) was 4.19 ± 1.39 min, the EF enhancement factor ([2]; Table 4a, delipidised skin) was 7.47 and the KP permeability coefficient ([2]; Table 4a, untreated skin) was 3.39 ± 0.75 10^−8 cm/s. The TL lag time ([2]; Table 4a, untreated skin) was 77.66 ± 12.96 min, the KP permeability coefficient [2, 10] was 141.4 ± 31.21 10^−8 cm/s and the TL lag time [2, 10] was 26.71 ± 9.26 min. For the same compound, the EF enhancement factor ([2]; Table 5a, EtOH/PBS) was 15.46, the JS flux [2, 11] was 8.52 ± 0.29* 10^−4 μg/cm/s and the KP permeability coefficient [2, 11] was 41.61 ± 14.19 10^−8 cm/s. The TL lag time [2, 11] was 16.74 ± 3.99 min, the EF enhancement factor [2, 11] was 4.55 and the KP permeability coefficient [2, 12] was 342.4 ± 170.1 10^−8 cm/s. The EF enhancement factor [2, 12] was 37.41, the KP permeability coefficient [2, 13] was 589.93 ± 207.62 10^−8 cm/s and the EF enhancement factor [2, 13] was 64.44. For the same compound, the KP permeability coefficient ([2]; Table 5a, delipidised skin) was 99.68 ± 26.84 10^−8 cm/s, the EF enhancement factor ([2]; Table 5a, delipidised skin) was 10.93 and the TL lag time ([2]; Table 5a, untreated skin) was 19.69 ± 3.54 min.
Compound `CC[C@H](C)[C@H](NC(=O)[C@H](Cc1ccc(O)cc1)NC(=O)[C@@H](NC(=O)[C@H](CCCNC(=N)N)NC(=O)[C@@H](N)CC(=O)O)C(C)C)C(=O)N[C@@H](Cc1cnc[nH]1)C(=O)N1CCC[C@H]1C(=O)N[C@@H](Cc1ccccc1)C(=O)O` [Ang II, Angiotensin II] has an EF ([3]; 4 h, delipidisation vs untreated skin) of 58, an EF ([3]; 4 h, post-iontophoresis vs untreated skin) of 1.7 and an EF ([3]; 4 h, rotating brush (brush B) vs untreated skin) of 72. For the same compound, the EF ([3]; 4 h, tape-stripping vs untreated skin) was 53, the EF ([3]; 24 h, delipidisation vs untreated skin) was 49 and the EF ([3]; 24 h, post-iontophoresis vs untreated skin) was 6. The EF ([3]; 24 h, rotating brush (brush B) vs untreated skin) was 63, the EF ([3]; 24 h, tape-stripping vs untreated skin) was 27 and the “Amount in receptor after 4 h” value ([3]; delipidisation) was 15.71 ± 2.85 ng/cm^2. For the same compound, the “Amount in receptor after 24 h” value ([3]; delipidisation) was 83.03 ± 24.28 ng/cm^2, the “Amount in receptor after 24 h” value ([3]; post-iontophoresis) was 10.02 ± 6.28 ng/cm^2 and the “Amount in receptor after 4 h” value ([3]; post-iontophoresis, value on sample re-analysis) was 0.46 ± 0.15^+ ng/cm^2. The “Amount in receptor after 4 h” value ([3]; rotating brush (brush B)) was 19.45 ± 0.55 ng/cm^2, the “Amount in receptor after 24 h” value ([3]; rotating brush (brush B)) was 107.49 ± 19.66 ng/cm^2 and the “Amount in receptor after 4 h” value ([3]; tape-stripping) was 14.44 ± 4.73 ng/cm^2. For the same compound, the “Amount in receptor after 24 h” value ([3]; tape-stripping) was 46.93 ± 15.62 ng/cm^2, the “Amount in receptor after 4 h” value ([3]; untreated skin, 1 mg/ml in PBS) was 0.27 ± 0.23 ng/cm^2 and the “Amount in receptor after 24 h” value ([3]; untreated skin, 1 mg/ml in PBS) was 1.69 ± 1.01 ng/cm^2.
